Read-outs that look alike come from different tables or passages of the source.
Legend:
Format in all cases: in vivo
[1] = Pharmacokinetic evaluation in the mouse; conditions: male CD1 mouse
Procedure: For intravenous (i.v.) administration, Compound (−)-17 was dissolved in saline containing 20% (w/v) hydroxy-propyl-beta-cyclodextrin (HPbCD) at a concentration of 0.25 mg/mL and administered (10 mL/kg) to male CD1 mice (n=3) as a bolus via a tail vein at a dose level of 2.5 mg/kg. For oral (p.o.) administration, Compound (−)-17 was dissolved in water containing 20% (w/v) HPbCD at a concentration of 0.5 mg/mL and administered (20 mL/kg) to male CD1 mice (n=3) via gavage at a dose level of 10 mg/kg. Blood samples were collected via a saphenous vein at serial time points up to 24 h after dosing. Plasma was obtained by centrifugation and stored at −20° C. prior to analysis. Analysis was performed using liquid chromatography (LC) with tandem mass spectrometric detection (MS/MS) in positive ion mode. Compound (−)-17 was eluted from a reversed phase column with a gradient of acetonitrile and water containing 0.1% (v/v) formic acid. At the time of analysis plasma samples (20 uL) were thawed and […] with 200 uL of acetonitrile and centrifuged. Aliquots of the supernatant were injected onto a reversed phase UPLC column and analysed via electrospray Mass Spectrometry. Calibration standards and quality controls, analysed before and after the study samples, were prepared in mouse plasma at the same time as […]. The accuracy (intra branch accuracy from independent QC samples) was between 85% and 115% of the nominal value over the entire concentration range. Non-compartmental pharmacokinetic analysis of the plasma concentration-time curves was performed using WinNonLin to provide estimates of the plasma clearance (CLp), volume of distribution at steady-state (Vss), terminal phase elimination half-life ([…]) and oral bioavailability (F), the results are summarised in Table 8.

[2] = Cardiovascular effects in the anaesthetized guinea-pig; conditions: female, plasma, iv, guinea pig, end of 5-min i.v. infusion; for concentration at 5 min: read-out: Median plasma level; for Cmax: read-out: Median plasma level (Cmax)
Procedure: (§1) Female guinea-pigs were anesthetized with sodium pentobarbital (66 mg/kg i.p.) followed by a continuous i.v. infusion of 6 mg/h of sodium pentobarbital and prepared for measurements of the surface electrocardiogram (ECG), heart rate and mean arterial blood pressure (see De Clerck et al, Fundam. Clin. Pharm.; 2002; 16: 125-140). Compound (−)-17 was dissolved in 20% hydroxypropyl-cyclodextrin with NaOH, HCl and mannitol in pyrogen-free water and administered intravenously (0.5 ml/kg) in increasing doses (0.16, 0.32, 0.64, 1.25, 2.5 and 5 mg/kg) over a period of 5 min at 15-min intervals. Plasma concentrations of Compound (−)-17 were measured at the end of each infusion. Corresponding volumes of vehicle were administered according to the same protocol in a second group of animals.

anesthetized guinea-pig = assay: as above
Procedure: as §1

[3] = guinea pig i.v. 0.16 mg/kg @ 2′
[4] = guinea pig i.v. 0.16 mg/kg @ 5′
[5] = guinea pig i.v. 0.16 mg/kg @ 15′
[6] = guinea pig i.v. 0.32 mg/kg @ 2′
[7] = guinea pig i.v. 0.32 mg/kg @ 5′
[8] = guinea pig i.v. 0.32 mg/kg @ 15′
[9] = guinea pig i.v. 0.64 mg/kg @ 2′
[10] = guinea pig i.v. 0.64 mg/kg @ 5′

## COc1cc(N)c(Cl)cc1C(=O)NC1CCN(CCCOc2ccc(F)cc2)CC1(F)F (single isomer, unassigned) [Compound (−)-17, 4-amino-5-chloro-N-{3,3-difluoro-1-[3-(4-fluorophenoxy)-propyl]-piperidin-4-yl}-2-methoxybenzamide]
[1]; p.o. 10 mg/kg vs i.v. 2.5 mg/kg
  F: 52%
[1]; plasma, intravenous, 2.5 mg/kg, read-out: t½ (converted)
  half-life: 84 ± 12 min
[1]; plasma, iv, i.v. 2.5 mg/kg
  clearance: 20 ± 6 mL/min/kg
[1]; plasma, iv, i.v. 2.5 mg/kg, read-out: Vss
  Vd: 1.9 ± 0.6 L/kg
[1]; plasma, po, p.o. 10 mg/kg
  AUC(0-t): 4440 ± 1090 ng·h/mL
  Cmax: 1580 ± 165 ng/mL
  Tmax: 30 min
[2]; dose 0.16 mg/kg (increasing doses, 15-min intervals)
  concentration at 5 min: 398 ng/mL
[2]; dose 0.32 mg/kg (increasing doses, 15-min intervals)
  concentration at 5 min: 873 ng/mL
[2]; dose 0.64 mg/kg (increasing doses, 15-min intervals)
  concentration at 5 min: 1820 ng/mL
[2]; dose 1.25 mg/kg (increasing doses, 15-min intervals)
  concentration at 5 min: 3330 ng/mL
[2]; dose 2.5 mg/kg (increasing doses, 15-min intervals)
  Cmax: 6320 ng/mL
[2]; dose 5 mg/kg (increasing doses, 15-min intervals; total dose 9.87 mg/kg)
  Cmax: 12000 ng/mL
Anesthetized guinea-pig; [3]
  HR, percentage change relative to baseline: −1%
  MBP, percentage change relative to baseline: 4%
  PQ, percentage change relative to baseline: 0%
  QRS, percentage change relative to baseline: −2%
  QT, percentage change relative to baseline: 0%
  QTc B, percentage change relative to baseline: −1%
Anesthetized guinea-pig; [4]
  HR, percentage change relative to baseline: 0%
  PQ, percentage change relative to baseline: 1%
  QRS, percentage change relative to baseline: −2%
  QT, percentage change relative to baseline: −1%
  QTc B, percentage change relative to baseline: −1%
Anesthetized guinea-pig; [5]
  HR, percentage change relative to baseline: −2%
  MBP, percentage change relative to baseline: −3%
  PQ, percentage change relative to baseline: 4%
  QRS, percentage change relative to baseline: 0%
  QT, percentage change relative to baseline: 1%
  QTc B, percentage change relative to baseline: 1%
Anesthetized guinea-pig; [6]
  HR, percentage change relative to baseline: −1%
  MBP, percentage change relative to baseline: 6%
  PQ, percentage change relative to baseline: 2%
  QRS, percentage change relative to baseline: −2%
  QT, percentage change relative to baseline: 0%
  QTc B, percentage change relative to baseline: 1%
Anesthetized guinea-pig; [7]
  HR, percentage change relative to baseline: −4%
  MBP, percentage change relative to baseline: 2%
  PQ, percentage change relative to baseline: 4%
  QRS, percentage change relative to baseline: 0%
  QT, percentage change relative to baseline: 3%
  QTc B, percentage change relative to baseline: 1%
Anesthetized guinea-pig; [8]
  HR, percentage change relative to baseline: −4%
  MBP, percentage change relative to baseline: −3%
  PQ, percentage change relative to baseline: 4%
  QRS, percentage change relative to baseline: 0%
  QT, percentage change relative to baseline: 4%
  QTc B, percentage change relative to baseline: 3%
Anesthetized guinea-pig; [9]
  HR, percentage change relative to baseline: −5%
  MBP, percentage change relative to baseline: 6%
  PQ, percentage change relative to baseline: 5%
  QRS, percentage change relative to baseline: 0%
  QT, percentage change relative to baseline: 7%
  QTc B, percentage change relative to baseline: 4%
Anesthetized guinea-pig; [10]
  HR, percentage change relative to baseline: −2%
  MBP, percentage change relative to baseline: 13%

From patent publication US9139523B2, “5-HT2B receptor antagonists” (Janssen Pharmaceutica, NV, priority 2010, dated 2015)
